Results taken from patent US5726162A (priority 1996, dated 1998).
Like-named read-outs stand apart in the source and are kept apart here.

Key:
Candida albicans = experiment: Activity against Candida albicans in microtiter plates, % control of growth; format: cell-based
Description: The activity against Candida albicans was determined using the following test protocol.
Conidia and mycelium from the Candida albicans culture maintained on potato dextrose agar plates were lightly scraped off into yeast extract-dextrose broth (YDB) so that mostly conidia was used as inoculum. The conidial suspsension was strained through a double layer of cheesecloth to remove mycelial clumps. The inoculum mixture was placed in microtiter plates using a 12-tipped pipet. 175 microliters were placed in each well of the microliter plates and the plates were placed in the refrigerator overnight. There were two replications.
The compounds to be tested were dissolved in 1:1 acetone:methanol and 100 ppm of the compound solution were placed in a well of the prepared microtiter plates.
The microtiter plates were incubated for 7 days at room temperature after addition of the compounds. Percent control was visually estimated using a microtiter plate reading mirror. Readings were made at 1, 2, 3, and/or 7 days after treatment.

fungal inoculum = experiment: organism not typed; format: cell-based; conditions: read-out: % growth inhibition
[1] = system: Magnaporthe grisea (Pyricularia oryzae); experiment: whole plant or invertebrate; format: in vivo, Magnaporthe grisea (Pyricularia oryzae) on M201 rice plants; conditions: Pyricularia oryzae, 144 h, read-out: % Control RB
fungal mycelium = experiment: organism not typed; format: cell-based; conditions: read-out: % growth inhibition
[2] = system: Thanatephorus cucumeris (Rhizoctonia solani); experiment: In vivo test b) Rice Sheath Blight (RSB), 24 hour preapplication protectant, % control; conditions: read-out: % Control RSB
Description: Compounds were tested at 200 ppm as a twenty-four hour preapplication protectant test prior to inoculation.
b) Rice Sheath Blight (RSB)
Thanatephorus cucumeris (Rhizoctonia solani) mycelia were grown for six days in potato dextrose broth in shake culture. Drained mycelial mats were blended with an approximately equal weight of rice flour and five parts water. This slurry was dispensed onto the soil surface of pots containing rice seedlings previously treated with experimental compounds. The plants were placed in a mist chamber at 25°-28° C. for 48 hours. Following two more days at 25° C. and 70-90% relative humidity the plants were evaluated for percent disease control compared to check plants.

[3] = 24 h, 1 day after treatment, read-out: % control of growth +1
[4] = 48 h, 2 days after treatment, read-out: % control of growth +2
[5] = 72 h, 3 days after treatment, read-out: % control of growth +3

What does the source list for `CC(C)C#CCN1N=C(c2ccc(Cl)cc2)CCC1=O` [Compound 34]?
inhibition of growth at 100 ppm (Candida albicans; [3]): 100%; inhibition of growth at 100 ppm (Candida albicans; [4]): 100%; inhibition of growth at 100 ppm (Candida albicans; [5]): 100%; inhibition at 10 ppm (fungal inoculum): 100%; pest or weed control at 200 ppm [1]: 90%

What does the source list for `C=CC#CCN1N=C(c2ccc(Cl)cc2)CCC1=O` [Compound 56, 6-(4-chlorophenyl)-2-(3'-vinyl-2'-propynyl)-4,5-dihydropyridazinone]?
inhibition of growth at 100 ppm (Candida albicans; [3]): 100%; inhibition of growth at 100 ppm (Candida albicans; [4]): 100%; inhibition of growth at 100 ppm (Candida albicans; [5]): 100%; inhibition at 1 ppm (fungal inoculum): 100%; pest or weed control at 200 ppm [1]: 100%

Which inhibition at 5 ppm (fungal inoculum) does the source give for `CC(C)C#CC=CCN1N=C(c2ccc(Cl)cc2)CCC1=O` [Compound 70] here?
Its inhibition at 5 ppm is 100%.

And the pest or weed control at 200 ppm [1]?
Its pest or weed control at 200 ppm is 0%.

For `O=C1CCC(c2ccc(Cl)cc2)=NN1CC#CCBr` [Compound 71], which inhibition at 50 ppm (fungal inoculum) is on record?
The inhibition at 50 ppm was 92.6%.

What about the pest or weed control at 200 ppm [1] of the same compound?
Its pest or weed control at 200 ppm is 0%.

For `O=C1CCC(c2ccc(Cl)cc2)=NN1CC#CCCl` [Compound 72, 6-(4-chlorophenyl)-2-(4'-chloro-2'-butynyl)-4,5-dihydropyridazinone], which inhibition at 0.5 ppm (fungal inoculum) is on record?
Its inhibition at 0.5 ppm is 96.2%.

And the pest or weed control at 200 ppm [1]?
The pest or weed control at 200 ppm was 90%.

What does the source list for `CCC#CCN1N=C(c2ccc(Cl)cc2F)CCC1=O` [Compound 73]?
inhibition at 50 ppm (fungal inoculum): 94.4%; pest or weed control at 200 ppm [1]: 95%

Which results are given for `O=C1CCC(c2ccc(Cl)cc2)=NN1CC#CCF` [Compound 76, 6-(4-chlorophenyl)-2-(4'-fluoro-2'-butynyl)-4,5-dihydropyridazinone]?
inhibition at 10 ppm (fungal mycelium): 100%; inhibition of growth at 100 ppm (Candida albicans; [3]): 100%; inhibition of growth at 100 ppm (Candida albicans; [4]): 100%; inhibition of growth at 100 ppm (Candida albicans; [5]): 100%; pest or weed control at 200 ppm [1]: 0%

With `O=C1CCC(c2ccc(Cl)cc2)=NN1CC#CC1CO1` (centres unmarked) [Compound 77] as the compound, how does the inhibition at 10 ppm (fungal inoculum) read?
Its inhibition at 10 ppm is 89.2%.

What about the pest or weed control at 200 ppm [1] of the same compound?
The pest or weed control at 200 ppm was 0%.

How did the inhibition at 0.5 ppm (fungal inoculum) turn out when `O=C1CCC(c2ccc(Cl)cc2)=NN1CC#CC(F)=C(F)F` [Compound 78] was run?
The inhibition at 0.5 ppm was 100%.

What about the pest or weed control at 200 ppm [1] of the same compound?
The pest or weed control at 200 ppm was 0%.

With `CCC#CCN1N=C(c2ccc(-c3ccccc3)cc2)CCC1=O` [Compound 79] as the compound, how does the inhibition at 50 ppm (fungal mycelium) read?
Its inhibition at 50 ppm is 17%.

And the pest or weed control at 200 ppm ([2]; 200 ppm, protectant)?
Its pest or weed control at 200 ppm is 75%.

And the pest or weed control at 200 ppm [1]?
The pest or weed control at 200 ppm was 100%.

`CCC#CCN1N=C(c2ccc(C)cc2)CCC1=O` [Compound 80] was tested. Which inhibition at 2.5 ppm (fungal mycelium) did it give?
The inhibition at 2.5 ppm was 100%.

What about the pest or weed control at 200 ppm [2] of the same compound?
Its pest or weed control at 200 ppm is 0%.

What about the pest or weed control at 200 ppm [1] of the same compound?
The pest or weed control at 200 ppm was 99%.

With `O=C1CCC(c2ccc(Cl)cc2)=NN1CC#CC(F)F` [Compound 89] as the compound, how does the inhibition at 10 ppm (fungal mycelium) read?
Its inhibition at 10 ppm is 100%.

And the pest or weed control at 200 ppm ([2]; 200 ppm, protectant)?
Its pest or weed control at 200 ppm is 0%.

What about the pest or weed control at 200 ppm [1] of the same compound?
Its pest or weed control at 200 ppm is 95%.

How did the inhibition at 1 ppm (fungal mycelium) turn out when `CCC#CCN1N=C(c2cc(F)c(Cl)c(F)c2)CCC1=O` [Compound 90] was run?
Its inhibition at 1 ppm is 100%.

And the pest or weed control at 200 ppm ([2]; 200 ppm, protectant)?
Its pest or weed control at 200 ppm is 95%.

And the pest or weed control at 200 ppm [1]?
Its pest or weed control at 200 ppm is 0%.

`CCC#CCN1N=C(c2ccc(OC(F)(F)F)c(F)c2)CCC1=O` [Compound 92] was tested. Which inhibition at 1 ppm (fungal inoculum) did it give?
The inhibition at 1 ppm was 100%.

And the pest or weed control at 200 ppm [1]?
Its pest or weed control at 200 ppm is 90%.

How did the inhibition at 1 ppm (fungal mycelium) turn out when `CC=CC#CCN1N=C(c2ccc(Cl)cc2)CCC1=O` [Compound 101] was run?
The inhibition at 1 ppm was 100%.

What about the pest or weed control at 200 ppm ([2]; 200 ppm, protectant) of the same compound?
The pest or weed control at 200 ppm was 0%.

And the pest or weed control at 200 ppm [1]?
Its pest or weed control at 200 ppm is 75%.

Which results are given for `C/C=C\C#CCN1N=C(c2ccc(Cl)cc2)CCC1=O` [Compound 102]?
inhibition at 1 ppm (fungal mycelium): 100%; pest or weed control at 200 ppm ([2]; 200 ppm, protectant): 0%; pest or weed control at 200 ppm [1]: 99%

With `C/C=C/C#CCN1N=C(c2ccc(Cl)cc2)CCC1=O` [Compound 103] as the compound, how does the inhibition at 1 ppm (fungal mycelium) read?
The inhibition at 1 ppm was 100%.

And the pest or weed control at 200 ppm ([2]; 200 ppm, protectant)?
Its pest or weed control at 200 ppm is 0%.

What about the pest or weed control at 200 ppm [1] of the same compound?
Its pest or weed control at 200 ppm is 95%.

`CCC#CCN1N=C(c2ccc(F)c(Cl)c2)CCC1=O` [Compound 104] was tested. Which inhibition at 5 ppm (fungal mycelium) did it give?
Its inhibition at 5 ppm is 100%.

And the pest or weed control at 200 ppm ([2]; 200 ppm, protectant)?
Its pest or weed control at 200 ppm is 0%.

What about the pest or weed control at 200 ppm [1] of the same compound?
The pest or weed control at 200 ppm was 0%.

Which results are given for `O=C1CCC(c2ccc(Cl)cc2)=NN1Cc1cccc(Cl)c1` [Compound 105]?
inhibition at 10 ppm (fungal mycelium): 33.3%; pest or weed control at 200 ppm ([2]; 200 ppm, protectant): 0%; pest or weed control at 200 ppm [1]: 75%

Which results are given for `CC#CCN1N=C(C=Cc2ccc(C(C)(C)C)cc2)CCC1=O` [Compound 107]?
inhibition at 200 ppm (fungal mycelium): 83.7%; pest or weed control at 200 ppm ([2]; 200 ppm, protectant): 0%; pest or weed control at 200 ppm [1]: 0%

How did the inhibition at 10 ppm (fungal inoculum) turn out when `CCC#CCn1nc(-c2ccc(CC)cc2)ccc1=O` [Compound 110] was run?
Its inhibition at 10 ppm is 100%.

And the pest or weed control at 200 ppm [1]?
Its pest or weed control at 200 ppm is 0%.

What does the source list for `CCC#CCn1nc(-c2ccc(C(C)(C)C)cc2)ccc1=O` [Compound 111]?
inhibition at 25 ppm (fungal inoculum): 100%; pest or weed control at 200 ppm [1]: 0%

Which results are given for `CCC#CCn1nc(-c2ccc(Cl)c(Cl)c2)ccc1=O` [Compound 112]?
inhibition at 10 ppm (fungal inoculum): 100%; pest or weed control at 200 ppm [1]: 90%
